Assays:
[1] = test system: Dupilumab (hIgG4); assay: Small bioconjugation handle installation to other IgGs (Q-ToF LC-MS); format: biochemical, human; settings: 20 equivalents, room temperature
Procedure: Reactions were performed on a 10 μL scale using 0.2 mL PCR tubes (FIG. 64). First, the electrophile-attached Z33 peptide reagent was dissolved in water to prepare a 2 mg/mL solution. IgG (human WN1 (prepared as previously described (ChemBioChem, 19, 2039-2044 (2018)), denosumab (Invitrogen), dupilumab (Invitrogen), or mouse IgG1 (Invitrogen, subtype controlled)), electrophile-attached Z33 peptide reagent (2 mg/mL), HEPES buffer (pH 8.5), and NaCl solution were added to achieve final concentrations of 5 μM, 100 μM, 100 mM, and 200 mM. The contents were mixed using a 5 μL pipette and incubated at room temperature in the dark for 24 hours. The resulting reaction solution was quenched with a 100 mM Tris buffer and analyzed by LC-MS (FIGS. 53A to 53D, Table 10). Sample preparation for LC-MS analysis was performed in the same manner as previously described.
Reactions were performed on a 10 μL scale using 0.2 mL PCR tubes. First, the electrophile-attached Z33 peptide reagent was dissolved in water to prepare a 2 mg/mL solution. Denosumab (Invitrogen), dupilumab (Invitrogen), or mouse IgG1 (Invitrogen, subtype controlled)), electrophile-attached Z33 peptide reagent (2 mg/mL), HEPES buffer (pH 8.5), and NaCl solution were added to achieve final concentrations of 5 μM, 100 μM, 100 mM, and 200 mM. […] The resulting reaction solution was quenched with a 100 mM Tris buffer and analyzed by LC-MS. […]

[2] = biological target: T1, Trastuzumab (Homo sapiens, UniProt P01857, D239E/L241M); assay: Determination of the modification sites (Trypsin/Lys-C digest, nLC-MS/MS); format: biochemical; settings: Tmab, LC-MS/MS sequencing
T1 construct: purchased Syd Labs Inc; MedChemExpress LLC; Bio X Cell
T1 sequence (P01857 with tags, fused parts or gaps isoform P01857-1 D239E/L241M, other chains not shown): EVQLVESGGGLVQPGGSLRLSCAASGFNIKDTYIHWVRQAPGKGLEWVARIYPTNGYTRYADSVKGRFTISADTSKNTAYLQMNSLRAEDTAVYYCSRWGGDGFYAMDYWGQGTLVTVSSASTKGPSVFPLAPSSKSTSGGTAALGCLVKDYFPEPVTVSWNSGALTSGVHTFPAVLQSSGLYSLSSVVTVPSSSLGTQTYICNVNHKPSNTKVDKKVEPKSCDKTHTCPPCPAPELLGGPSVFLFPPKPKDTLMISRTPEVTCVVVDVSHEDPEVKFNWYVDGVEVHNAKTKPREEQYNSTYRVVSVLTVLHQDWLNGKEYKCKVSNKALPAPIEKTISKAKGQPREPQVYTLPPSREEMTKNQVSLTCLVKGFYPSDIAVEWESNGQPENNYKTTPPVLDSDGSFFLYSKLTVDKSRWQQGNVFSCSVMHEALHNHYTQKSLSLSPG
Procedure: The modified trastuzumab (30 μg) from entry 6 of 5.2.1 was diluted to 36 μL using Tris buffer (50 mM, pH 8.0). PNGase F (New England BioLabs, 200 units) was added to the solution and incubated at 37° C. for 4 hours. The reaction solution was then brought to room temperature, and urea solution (6M in 50 mM Tris pH 8.0, 14 μL) and DTT solution (200 mM, 1.5 μL) were added and incubated at 37° C. for 1 hour. After that, iodoacetamide (800 mM, 1 μL) was added and incubated at room temperature for 30 minutes. The resulting solution was diluted 2-fold using Tris buffer (50 mM, pH 8.0), and then Trypsin/Lys-C mix (Promega, 0.2 μg/μL in solution, 6 μL) was added and incubated at 37° C. for 18 hours. The reaction solution was then purified by pipetting with Ziptip, lyophilized, and analyzed by nLC-MS/MS (using nLC-MS/MS method B). Obtained raw data were analyzed using Thermo Scientific FreeStyle™ 1.6. […]
The modified trastuzumab (30 μg) from entry 6 of 5.2.1 was diluted to 36 μL using Tris buffer (50 mM, pH 8.0). […] The reaction solution was then purified by pipetting with Ziptip, lyophilized, and analyzed by nLC-MS/MS (using nLC-MS/MS method B). Obtained raw data were analyzed using Thermo Scientific FreeStyle™ 1.6. […]

Site of modification [2]: Lys-317
Sequence: FNMQQQRRFYEALHD PNLNHcyEQRNAKIKSI RDD [PEL-21]
Light chain total conversion ([1]; HEPES pH 8.5, first column so headed): 13% | Light chain total conversion ([1]; HEPES pH 8.5, second column so headed): 96%

From patent publication US20250127918A1, “SITE-SELECTIVE CONJUGATION OF A PHARMACEUTICAL AGENT TO AN ANTIBODY USING AN AFFINITY PEPTIDE” (priority 2023, published 2025)
